Assay results reported in patent publication US10441537B2, “Unit doses, aerosols, kits, and methods for treating heart conditions by pulmonary administration” (InCarda Therapeutics, Inc., priority 2017, dated 2019).
Read-outs that look alike come from different tables or passages of the source.

What was measured:
[1] = test system: induced atrial fibrillation; assay: Induced atrial fibrillation model in anesthetized dogs, intratracheal (IT) administration; type: in vivo
Procedure: Atrial Fibrillation Model: Anesthesia/Surgical Preparation: A venous catheter was placed in a peripheral vessel (i.e., cephalic) for administration of anesthetic. […] Following induction, animals were endotracheally intubated and mechanically ventilated (˜12 breaths/minute with a tidal volume of 200-300 mL). Subsequently, a cut-down on a jugular vein permitted introduction of a pacing lead into the right atrium. Transthoracic electrodes forming ECG lead II were placed. For test/vehicle article delivery, a 4F catheter was introduced through the trachea and wedged into a small airway, and a venous catheter was placed in a peripheral vessel (i.e., cephalic). […] Approximately 5 min after administration of this parasympathomimetic was started; the following experiments were performed: […] Observations were made for up to 10 minutes. […] Vehicle was only water.

healthy volunteers [2] = assay: Phase 1 study: auscultation, respiration rate, chest x-rays; type: in vivo, human
Procedure: Pulmonary safety was assessed by performing lung spirometry tests and measuring peripheral oxygen saturation (SpO2%) prior to dosing and at various times after completion of the inhalation. Lung spirometry tests evaluated all lung function parameters, including forced vital capacity (FVC), forced expiratory volume in 1 second (FEV1), peak expiratory flow (PEF), and forced expiratory flow at 25% and 75% intervals (FEF25-75). Auscultation and respiration rate were also measured prior to dosing and at various times after inhalation. Chest x-rays were performed on subjects before and after flecainide inhalation.

[3] = Phase 1 study: venous plasma pharmacokinetics; type: in vivo, human; conditions: for Tmax / Cmax / AUC(0-t) / half-life: venous plasma; for Dist. t1/2α, mean (CV %): both; for half-life: read-out: Elim. t1/2, mean (CV %) (converted)
Procedure: In this study, for inhalation delivery of flecainide, the estimated total lung doses (eTLDs) were calculated to account for losses of flecainide in the inhalation device and losses of flecainide in subjects' mouth and throat. eTLD was thereby used to denote the dose that actually reached the lungs of the subjects. By design, in all nebulizers there can be a residual volume or mass of drug solution that stays in the nebulizer, and there can also be a percentage of the aerosol caught by subject's throat and mouth. For instance, in this study, it was estimated that 30% of the aerosol was lost in subject's throat and mouth.

healthy volunteers [4] = assay: Phase 1 study: ECG pharmacodynamics (QRS, PR, QTcF, T-wave) and PK-PD; type: in vivo, human
Procedure: The ECG recordings included: 1) Continuous real-time ECG telemetry for observation of patient safety starting at 12 hours pre-dose and continuing for 12 hours post-dose, 2) 12-lead ECGs for immediate review by medical staff to ascertain the safety of the procedures and drug administration were recorded at pre-specified (or any time as needed) before dosing (pre-dose) and after dosing (post-dose), and 3) continuous 12-lead ECG (cECG, iCardiac Holter monitoring) was recorded for 24 hours, starting 1 hour prior to dosing and up to 24 hours post dosing.
As expected from non-steady state conditions, and shown in FIGS. 84A and 84B, a temporal dissociation is observed between ([Flec]plasma) and ΔQRS. […] The hysteresis between concentrations and responses (QRS) applies for both routes of administration, IV and inhalation.

[5] = test system: anesthetized Yorkshire pigs; assay: PD responses (HR, MAP, ECG intervals) in anesthetized Yorkshire pigs, IV vs IT; type: in vivo
Procedure: All catheters were positioned under fluoroscopic guidance. […] Data are reported as means+ SEM. Statistical analyses were performed using the SAS system (9.4) to apply ANOVA with a post-hoc Dunnett's test. Statistical significance was assumed at p<0.05.

[6] = Plasma concentrations in LV, femoral vein and pulmonary artery of dogs (Example 7); type: in vivo
healthy volunteers [7] = conditions: in vivo, iv
Procedure: 3 cohorts of subjects, in total 34 healthy adult volunteers, were recruited for Part A study.
Part B was an open label non-randomized crossover in a cohort of 6 evaluable healthy adult volunteers.
In addition, the effects of changing posture from semi-recumbent to seated upright, vice-versa and during inhalation on HR and BP were assessed (Cohort 5).

in vivo = conditions: male, Yorkshire, pig, iv, 2 mg/kg
Procedure: The studies were carried out in male Yorkshire pigs (n=9) weighing 36±1.0 kg (mean±SEM). The pigs were pre-anesthetized with telazol (4.7 mg/kg, intramuscular) and subsequently further anesthetized using alpha-chloralose (80 mg/kg, IV bolus, followed by 24 mg/kg/h continuous IV infusion). The animals were intubated and ventilated at a constant rate of 12 breaths/min and tidal volume of 400 ml per stroke.
Simultaneous blood samples were drawn from the pigtail catheter positioned in the LV and from a catheter in the jugular vein.
The samples were centrifuged and frozen at −80° C. until drug level determination was performed using a bioanalytical assay method developed by Climax Laboratories, Inc.

[8] = before and after inhalation of 20, 30, 40 mg eTLD

O=C(NCC1CCCCN1)c1cc(OCC(F)(F)F)ccc1OCC(F)(F)F (stereo not drawn) [flecainide, flecainide acetate]
ECG trace: Afib conversion ([1]; 2 mg/kg body weight (FIG. 12)): Afib converting as soon as dosing occurred
ECG trace: Afib conversion ([1]; 4 mg/kg body weight, intra-tracheal instillation (FIG. 11)): Afib converting into normal sinus rhythm
conversion of Atrial Fibrillation to normal sinus rhythm ([1]; IT bolus): rapidly converted the Atrial Fibrillation to normal sinus rhythm
cardiovascular effect when given by intratracheal instillation (summary) ([1]; dog, in vivo): clear cardiovascular effect
ventricular rate ([1]; large pulmonary doses): slower ventricular rates
drop in mean arterial pressure ([1]; pulmonary dose 2-4 mg/kg): None to minimal drop in mean arterial pressure
conversion of induced atrial fibrillation to normal sinus rhythm ([1]; pulmonary dose 2-4 mg/kg body weight): converted the induced atrial fibrillation to normal sinus rhythm
respiratory rate (healthy volunteers [2]; Cohorts 1, 2, 3 and 5): minimal or no changes in respiratory rate
Auscultation (healthy volunteers [2]; [8]): normal in all subjects
Chest x-rays (healthy volunteers [2]; [8]): normal and showed no changes
respiration rate (healthy volunteers [2]; [8]): No changes in respiration rate
Tmax, median (min, max) ([3]; IV 2 mg/Kg over 10 min, Cohort 5, n=6, 2 mg/kg): 1 (0, 60) min after EOI
Elim. t1/2β, mean (CV %) ([3]; Inhaled 20 mg, n=6): 9.87 (25) hours
Tmax, median (min, max) ([3]; Inhaled 30 mg, Cohort 5, n=6): ≤ 1 min after EOI
Tmax, median (min, max) ([3]; Inhaled 30 mg, Cohort 5, n=6, listed as Flecainide): 0.5 (0, 1) min after EOI
Elim. t1/2β, mean (CV %) ([3]; Inhaled 40 mg, n=8 (post-hoc)): 9.0 (24) hours
Elim. t1/2β, mean (CV %) ([3]; Inhaled 60 mg, n=7 (post-hoc)): 12.0 (14) hours
Tmax ([3]; both sexes, human, inhaled or intranasal, 20 mg, Inhaled 20 mg, n=6, from end of inhalation, read-out: Tmax, median (min, max) (converted)): 1 min
Cmax ([3]; both sexes, human, inhaled or intranasal, 20 mg, Inhaled 20 mg, n=6, read-out: Cmax, arithmetic mean (CV %)): 95.1 ng/mL
Cmax ([3]; both sexes, human, inhaled or intranasal, 40 mg, Inhaled 40 mg, n=8 (post-hoc), read-out: Cmax, mean (CV %)): 173 ng/mL
Tmax ([3]; both sexes, human, inhaled or intranasal, 40 mg, Inhaled 40 mg, n=8 (post-hoc), read-out: Tmax, median (min, max) (converted)): 1 min
Cmax ([3]; both sexes, human, inhaled or intranasal, 60 mg, Inhaled 60 mg, n=7 (post-hoc), read-out: Cmax, mean (CV %)): 232 ng/mL
Tmax ([3]; both sexes, human, inhaled or intranasal, 60 mg, Inhaled 60 mg, n=7 (post-hoc), read-out: Tmax, median (min, max) (converted)): 1 min
Tmax ([3]; both sexes, human, inhaled or intranasal, 60 mg, two subjects each of 40 and 60 mg eTLD cohorts, after the end of inhalation, read-out: Tmax of the four subjects excluded post hoc): 20 to 240 min
AUC(0-t) ([3]; both sexes, human, inhaled or intranasal, Inhaled 20 mg, n=6, read-out: AUCLast, mean (CV %)): 421 ng·h/mL
AUC(0-t) ([3]; both sexes, human, inhaled or intranasal, Inhaled 40 mg, n=8 (post-hoc), read-out: AUCLast, mean (CV %)): 685 ng·h/mL
AUC(0-t) ([3]; both sexes, human, inhaled or intranasal, Inhaled 60 mg, n=7 (post-hoc), read-out: AUCLast, mean (CV %)): 946 ng·h/mL
Cmax ([3]; both sexes, human, inhaled, 40 mg, 40 mg eTLD cohort, read-out: Cmax of the two excluded subjects): 70.9 ng/mL
Cmax ([3]; both sexes, human, inhaled, 60 mg, 60 mg eTLD cohort, read-out: Cmax of the two excluded subjects): 82.3 ng/mL
Dist. t1/2α, mean (CV %) ([3]; human, in vivo, inhaled or intranasal, 20 mg): 3.86 (34) min
Dist. t1/2α, mean (CV %) ([3]; human, in vivo, inhaled or intranasal, 40 mg): 4.19 (39) min
Dist. t1/2α, mean (CV %) ([3]; human, in vivo, inhaled or intranasal, 60 mg): 3.47 (17) min
estimated t1/2α ([3]; human, in vivo): 3.5 to 4.2 min
Cmax ([3]; human, inhaled or intranasal, 30 mg, Inhaled 30 mg, Cohort 5, n=6, read-out: Cmax, mean (CV %)): 120 ng/mL
half-life ([3]; human, inhaled or intranasal, 30 mg, Inhaled 30 mg, Cohort 5, n=6): 606 min
AUC(0-t) ([3]; human, inhaled or intranasal, Inhaled 30 mg, Cohort 5, n=6, read-out: AUClast, mean (CV %)): 487 ng·h/mL
Cmax ([3]; human, iv, 2 mg/kg, IV 2 mg/Kg, Cohort 5, n=6, read-out: Cmax, mean (CV %)): 749 ng/mL
half-life ([3]; human, iv, 2 mg/kg, IV 2 mg/Kg, Cohort 5, n=6): 600 min
AUC(0-t) ([3]; human, IV 2 mg/Kg, Cohort 5, n=6, read-out: AUClast, mean (CV %)): 3050 ng·h/mL
venous plasma concentration-time curves, inhaled vs IV ([3]; inhaled 30 mg eTLD vs IV 2 mg/kg (b559: IV normalized to 30 mg), Cohort 5, 2 mg/kg): near-identical
dose proportionality of venous plasma concentrations ([3]; inhaled 20, 30 or 40 mg eTLD): near dose proportionality
QRS interval duration (healthy volunteers [4]; 30 min after completion of inhalation, Cohorts 1-3): returned to near pre-dose levels
T-wave morphology (healthy volunteers [4]; IV infusion 2 mg/kg): T-wave notching
non-specific intraventricular conduction delay (healthy volunteers [4]; IV infusion 2 mg/kg): 3 of 6 subjects
smaller changes in QRS interval duration, inhalation vs IV infusion (healthy volunteers [4]; eTLD 30 mg vs ˜150 mg IV): 2.7 fold
lower plasma concentration by inhalation for QRS prolongation as after IV (6.2/2.7) (healthy volunteers [4]; in vivo, iv): 2.3 fold
T-wave morphology (healthy volunteers [4]; inhalation 20, 30 and 40 mg eTLD): No changes in T-wave morphology
lower plasma level after inhalation at near-equal ΔQRS (healthy volunteers [4]; inhalation vs IV): 2.6 fold
mean ΔQRS (healthy volunteers [4]; inhaled 20 mg eTLD, between 1 and 3 minutes after end of inhalation): small increase of mean ΔQRS
PR interval duration prolonged from start of inhalation (healthy volunteers [4]; inhaled 30 mg eTLD, 5 min after completion of inhalation): 12 ms
QRS duration (healthy volunteers [4]; inhaled 40 mg eTLD, Cohort 2): transient increase between 1 and 3 minutes post-dosing
changes of the PR interval duration (healthy volunteers [4]; inhaled 20 or 40 mg eTLD): Minimal or no changes
non-specific intraventricular conduction delay (healthy volunteers [4]; oral inhalation eTLD of 30 mg): not observed in any of the same subjects
decrease of R-wave amplitude (QRSa) (healthy volunteers [4]; subject R222, 40 mg eTLD, 3 min post-dosing): 400 μV
increase of QRS duration (QRSd) (healthy volunteers [4]; subject R222, inhaled 40 mg eTLD, 1 minute post-dosing): 10 ms
mean arterial pressure ([5]; IT 0.75 mg/kg, baseline 111±3.6 mmHg, p=0.9112): not significantly altered
heart rate ([5]; IT 0.75 mg/kg, baseline 111±6.4 bpm, p=0.9970): not significantly altered
PR interval ([5]; IT 0.75 mg/kg, baseline 130±5.3 ms, p=0.9351): not significantly changed
JTc interval ([5]; IT 0.75 mg/kg, baseline 354±12.0 ms, p=0.7605): not significantly changed
QTc interval ([5]; IT 0.75 mg/kg, baseline 435±12.9 ms, p=0.5505): not significantly changed
mean arterial pressure ([5]; IT 1.5 mg/kg, baseline 108±9.4 mmHg, p=0.9894): not significantly altered
heart rate ([5]; IT 1.5 mg/kg, baseline 118±13.2 bpm, p=0.9999): not significantly altered
PR interval ([5]; IT 1.5 mg/kg, baseline 127±2.3 ms, p=0.0819): not significantly changed
JTc interval ([5]; IT 1.5 mg/kg, baseline 364±11.5 ms, p=0.9968): not significantly changed
QTc interval ([5]; IT 1.5 mg/kg, baseline 436±7.1 ms, p=0.1510): not significantly changed
heart rate ([5]; IV 2 mg/kg, baseline 103±1.9 bpm, ANOVA p=0.9936, 30 min): not significantly altered
mean arterial pressure ([5]; IV 2 mg/kg, baseline 105±6.7 mmHg, p=0.8852): not significantly altered
PR interval ([5]; IV 2 mg/kg, baseline 127±7.8 ms, p=0.5161): not significantly changed
JTc interval ([5]; IV 2 mg/kg, baseline 367±7.4 ms, p=0.9686): not significantly changed
QTc interval ([5]; IV 2 mg/kg, baseline 442±7.9 ms, p=0.35): not significantly changed
plasma concentrations transiently higher in the LV than in the PA (summary) ([6]; IT): ~2.5 fold
plasma levels higher in the LV than in the systemic venous circulation ([6]; IT, at the time of conversion): ~2 fold
plasma concentrations transiently higher in the PA than in the LV (summary) ([6]; IV infusion): ~3.5 fold
time after administration at which LV and PA concentrations were nearly equal ([6]; IV or IT): 4 to 10 min
decrease in systolic pressure (healthy volunteers [7]): ≤ 18 mmHg
maximal increase in HR (healthy volunteers [7]): 7 bpm
transient decrease in systolic pressure (healthy volunteers [7]): 9 mmHg
HR (healthy volunteers [7]; 2 mg/kg): An increase in HR was observed
systolic and diastolic BP (healthy volunteers [7]; 2 mg/kg): Decreases in systolic and diastolic BP were observed
concentration at 30 min (in vivo; LV plasma level): 497 ± 190 ng/mL
concentration at 30 min (in vivo; Venous plasma level): 519 ± 196 ng/mL
